Consider 4 compounds from patent US20140272066A1, “GLUTAMIC ACID DERIVATIVES” (Givaudan S.A., priority 2011, published 2014).

Structures are written as SMILES.

The conditions of test [1]: at concentrations comparable to MSG; cited from earlier work.
Test [2] in a line: Flavourist taste panel, solution B (with compound) rated against reference solution A. As to conditions: 10 ppm compound in 0.5% NaCl and 0.03% MSG, vs solution A; scale -3 (much lower than base) to 3 (much higher); average of 4 flavourists. The class given is in vivo, human. As to the method: Two solutions were prepared:
The samples were tasted by a small group of flavourists (2 male, 2 female, aged between 30 and 60). The intensity of the umami and salt taste of solution B was compared with that of the reference (solution A) and rated according to the following intensity scale:
The results (average of ratings given by the flavourists) were: […]

A short description of test [3]: Flavourist comparison of Béchamel sauce with cheese with and without compound. The class given is in vivo, human. As to conditions: 200 ppm in Béchamel sauce with cheese; 4 flavourists. As to the method: A Béchamel sauce with cheese was prepared from 70 g of butter, 50 g of flower, 1000 g of milk, 5 g of sodium chloride, 0.3 g of MSG, 0.15 g of nutmeg powder, 0.25 g of black pepper and 80 g of cheese powder. A blanc roux was prepared from the butter and flower before adding the other ingredients.
A small group of flavourists (2 male, 2 female) compared the taste of the reference Béchamel sauce with cheese with that of a batch of the same Béchamel sauce with cheese containing 200 ppm of DL-threo-3-methylglutamic acid.

Test [4] is described as follows: Flavourist comparison of white sauce with and without compound. In kind it is in vivo, human. To be noted: 200 ppm in white sauce; 4 flavourists. The protocol: A white sauce mix was prepared from 380 g of modified starch Prejel, 200 g of whey powder Esprion 300, 200 g of fat powder (ex DMV), 115 g of sodium chloride, 85.3 g of maltodextrin 14, 3 g of onion powder, 0.2 g of curcuma extract powder (ex turmeric), 1.5 g of white pepper and 15 g of probase high impact.
80 g of the well-mixed ingredients was added to 1 L of boiling water and stirred well.
A small group of flavourists (2 male, 2 female) compared the taste of the reference white sauce with that of a batch of the same white sauce containing 200 ppm of DL-threo-3-methylglutamic acid.

Test [5] can be described thus: Flavourist comparison of bouillon with and without compound. In kind it is in vivo, human. To be noted: 200 ppm in bouillon; 4 flavourists. The protocol:
A bouillon mix was prepared from 155.0 g of sodium chloride, 157.0 g of dextrose monohydrate (ex Tapioca), 0.2 g of celery oleoresin, 0.3 g of oleoresin turmeric Vegex, 0.2 g of oleoresin coriander seed, 444.8 g maltodextrin 5-8 DE, 40.0 g vegetable oil soya bean refined, 30.0 g yeast standard light, 4.0 g of onion powder, 4.0 g of garlic powder, 0.5 g of white pepper and 164.0 g of potato starch.
32 g of the well-mixed ingredients was added to 1 L of boiling water and stirred until completely dissolved.
A small group of flavourists (2 male, 2 female) compared the taste of the reference bouillon with that of a batch of the same bouillon containing 200 ppm of DL-threo-3-methylglutamic acid.

Take `N[C@@H](CC(=O)O)C(=O)O` [aspartic acid]: the Umami taste result in test [1] is reported as “hardly any umami taste”.

In the case of `CCCCCC(CC(=O)O)C(N)C(=O)O` (stereo not shown) [2-amino-3-pentylpentanedioic acid, 2-amino-3-pentylpentanedioic Acid], in test [2], the “Intensity Taste Salt (NaCl)” value was 0.00 and the “Intensity Taste Umami” value is given as 0.33.

For the compound `CC(CC(=O)O)C(N)C(=O)O` (racemic) [DL-threo-3-methylglutamic acid, DL-threo-3-methylglutamic Acid], the “Taste of test Béchamel sauce with cheese compared with reference” value in test [3] is “richer and more longlasting”. Besides, in test [2], the “Intensity Taste Salt (NaCl)” value is given as 0.33 and the “Intensity Taste Umami” value was 1.00. Moreover, in test [4], the “Taste of test white sauce compared with reference sauce” value is “fuller and slightly more umami”. Besides, the “Taste of test bouillon compared with reference bouillon” value in test [5] is “more umami, had an enhanced body of salt and was more salivating”.

As to `CCCC(CC(=O)O)C(N)C(=O)O` (stereo not shown) [2-amino-3-propylpentanedioic acid, 2-amino-3-propylpentanedioic Acid], in test [2], the “Intensity Taste Salt (NaCl)” value worked out at 0.33 and the “Intensity Taste Umami” value is 0.33.
